Data set [1] concerns Mycobacterium tuberculosis. Description: Antimycobacterial activity against Mycobacterium tuberculosis My 331/88 after 14 days by micromethod. It is filed as functional. To be noted: My 331/88, 336 h.
In data set [2] the test system is Mycobacterium avium. Description: Antimycobacterial activity against Mycobacterium avium My 330/88 after 14 days by micromethod. To be noted: My 330/88, 336 h. It is filed as functional.
Data set [3] has as its system Mycobacterium tuberculosis. Kind of data set: Antimycobacterial activity against Mycobacterium tuberculosis My 331/88 after 21 days by micromethod. It is filed as functional. Particulars: My 331/88, 504 h.
Data set [4] deals with Mycobacterium avium. Description: Antimycobacterial activity against Mycobacterium avium My 330/88 after 21 days by micromethod. Particulars: My 330/88, 504 h. The data set is classed as functional.
For data set [5], the system named is Mycobacterium kansasii. Description: Antimycobacterial activity against Mycobacterium kansasii My 235/80 after 7 days by micromethod. The data set is classed as functional. Particulars: My 235/80, 168 h.
Data set [6] has as its system Mycobacterium kansasii. Kind of data set: Antimycobacterial activity against Mycobacterium kansasii My 235/80 after 14 days by micromethod. The data set is classed as functional. To be noted: My 235/80, 336 h.
Data set [7] has as its system Mycobacterium kansasii. Kind of data set: Antimycobacterial activity against Mycobacterium kansasii My 235/80 after 21 days by micromethod. It is filed as functional. Particulars: My 235/80, 504 h.
The test system of data set [8] is Mycobacterium kansasii. Description: Antimycobacterial activity against Mycobacterium kansasii 6509/96 after 7 days by micromethod. The data set is classed as functional. To be noted: 6509/96, 168 h.
Data set [9] has as its system Mycobacterium kansasii. Description: Antimycobacterial activity against Mycobacterium kansasii 6509/96 after 14 days by micromethod. It is filed as functional. Particulars: 6509/96, 336 h.
Data set [10] relates to Mycobacterium kansasii. Kind of data set: Antimycobacterial activity against Mycobacterium kansasii 6509/96 after 21 days by micromethod. The data set is classed as functional. To be noted: 6509/96, 504 h.
Data set [11] can be described thus: Cytotoxicity against CHOK1 cells assessed as viability after 24 hrs by MTT assay. It is filed as cell-based. Particulars: Cricetulus griseus, CHO-K1, 24 h.
Data set [12] has as its system Salmonella typhimurium. Description: Mutagenic activity in Salmonella typhimurium TA98 assessed as induction of reverse mutation at 50 uM. It is filed as toxicity, organism-based. To be noted: salmonella enterica subsp. enterica serovar typhimurium.
Data set [13] has as its system Salmonella typhimurium. Description: Mutagenic activity in Salmonella typhimurium TA100 assessed as induction of reverse mutation at 50 uM. The data set is classed as toxicity, organism-based. To be noted: salmonella enterica subsp. enterica serovar typhimurium.
Data set [14] has as its system Staphylococcus aureus. Description: Antibacterial activity against Staphylococcus aureus ATCC 6538 after 24 to 48 hrs by broth micro dilution method. It is filed as functional, organism-based.
Data set [15] concerns Staphylococcus aureus. Kind of data set: Antibacterial activity against methicillin-resistant Staphylococcus aureus H 5996/08 after 24 to 48 hrs by broth micro dilution method. The data set is classed as functional, organism-based.
In data set [16] the test system is Staphylococcus epidermidis. Description: Antibacterial activity against Staphylococcus epidermidis H 6966/08 after 24 to 48 hrs by broth micro dilution method. The data set is classed as functional, organism-based.
Data set [17] concerns Enterococcus faecalis. Kind of data set: Antibacterial activity against Enterococcus faecalis J 14365/08 after 24 to 48 hrs by broth micro dilution method. It is filed as functional, organism-based.
Data set [18] concerns Escherichia coli. Description: Antibacterial activity against Escherichia coli ATCC 8739 after 24 to 48 hrs by broth micro dilution method. The data set is classed as functional, organism-based.
For data set [19], the system named is Klebsiella pneumoniae. Kind of data set: Antibacterial activity against Klebsiella pneumoniae D 11750/08 after 24 to 48 hrs by broth micro dilution method. The data set is classed as functional, organism-based.
The subject of data set [20] is Klebsiella pneumoniae. Description: Antibacterial activity against Klebsiella pneumoniae J 14368/08 after 24 to 48 hrs by broth micro dilution method. The data set is classed as functional, organism-based.
In data set [21] the test system is Klebsiella pneumoniae. Description: Antibacterial activity against ESBL positive Klebsiella pneumoniae J 14368/08 after 24 to 48 hrs by broth micro dilution method. The data set is classed as functional, organism-based.
Data set [22] deals with Pseudomonas aeruginosa. Kind of data set: Antibacterial activity against Pseudomonas aeruginosa ATCC 9027 after 24 to 48 hrs by broth micro dilution method. The data set is classed as functional, organism-based.
Data set [23] has as its system Candida albicans. Kind of data set: Antifungal activity against Candida albicans ATCC 44859 after 24 to 48 hrs by broth micro dilution method. It is filed as functional, organism-based.
In data set [24] the test system is Candida tropicalis. Kind of data set: Antifungal activity against Candida tropicalis 156 after 24 to 48 hrs by broth micro dilution method. The data set is classed as functional, organism-based.
The subject of data set [25] is Pichia kudriavzevii. Kind of data set: Antifungal activity against Candida krusei E28 after 24 to 48 hrs by broth micro dilution method. It is filed as functional, organism-based.
The subject of data set [26] is Nakaseomyces glabratus. Description: Antifungal activity against Candida glabrata 20/I after 24 to 48 hrs by broth micro dilution method. It is filed as functional, organism-based.
Data set [27] deals with Trichosporon asahii. Description: Antifungal activity against Trichosporon asahii 1188 after 24 to 48 hrs by broth micro dilution method. The data set is classed as functional, organism-based.
In data set [28] the test system is Aspergillus fumigatus. Description: Antifungal activity against Aspergillus fumigatus 2318 after 24 to 48 hrs by broth micro dilution method. It is filed as functional, organism-based.
For data set [29], the system named is Lichtheimia corymbifera. Kind of data set: Antifungal activity against Absidia corymbifera 272 after 24 to 48 hrs by broth micro dilution method. The data set is classed as functional, organism-based.
The test system of data set [30] is Trichophyton mentagrophytes. Description: Antifungal activity against Trichophyton mentagrophytes 445 after 72 to 120 hrs by broth micro dilution method. It is filed as functional, organism-based.

In brackets after ≈: the same amount, converted by molar mass. Activity calls are given as the source filed them. The calls are words filed in the database; no cut-off is given here.

On to `O=[N+]([O-])c1cc(CSc2nnnn2Cc2ccc(Cl)cc2)cc([N+](=O)[O-])c1`, for which the MIC turned out to be 2 µM (≈ 0.814 µg/mL) in data set [1]; 125 µM (≈ 50.9 µg/mL) in data set [2]; 4 µM (≈ 1.63 µg/mL) in data set [3]; 125 µM (≈ 50.9 µg/mL) in data set [4]; 2 µM (≈ 0.814 µg/mL) in [5]; 2 µM (≈ 0.814 µg/mL) in [6]. Besides, the MIC in data set [7] worked out at 4 µM (≈ 1.63 µg/mL); in data set [8], 4 µM (≈ 1.63 µg/mL); in data set [9], 8 µM (≈ 3.25 µg/mL); in data set [10] it was 8 µM (≈ 3.25 µg/mL). Further, the IC50 in data set [11] came to 94 µM. Also, the Activity entry in [12] and in data set [13] was “Toxic” throughout.
Regarding `O=[N+]([O-])c1cc(CSc2nnn(Cc3ccc(Cl)cc3)n2)cc([N+](=O)[O-])c1`, the MIC in data set [1] is 1 µM (≈ 0.407 µg/mL); in data set [2], 16 µM (≈ 6.51 µg/mL); in [3], 2 µM (≈ 0.814 µg/mL); in [4], 16 µM (≈ 6.51 µg/mL); in data set [5], 4 µM (≈ 1.63 µg/mL); in data set [6], 8 µM (≈ 3.25 µg/mL). Also, the MIC in data set [7] was 16 µM (≈ 6.51 µg/mL); in [8], 16 µM (≈ 6.51 µg/mL); in data set [9] it was 16 µM (≈ 6.51 µg/mL); in [10], 32 µM (≈ 13 µg/mL). The IC50 in data set [11] stood at 301 µM. Moreover, the Activity result in data set [12] and in data set [13] was “Toxic” throughout.
Turning to `O=[N+]([O-])c1cc(CSc2nnn(Cc3ccccc3)n2)cc([N+](=O)[O-])c1`, the MIC in data set [1] is 1 µM (≈ 0.372 µg/mL); in data set [2], 62 µM (≈ 23.1 µg/mL); in data set [3] it was 1 µM (≈ 0.372 µg/mL); in data set [4], 125 µM (≈ 46.5 µg/mL); in [5], 8 µM (≈ 2.98 µg/mL); in [6] it was 16 µM (≈ 5.96 µg/mL). Further, the MIC came out at 16 µM (≈ 5.96 µg/mL) in [7], 4 µM (≈ 1.49 µg/mL) in [8], 4 µM (≈ 1.49 µg/mL) in data set [9] and 8 µM (≈ 2.98 µg/mL) in [10]. The result in data set [14], in [15], in data set [16], in data set [17], in data set [18] and in data set [19] was inactive. Further, the result in data set [20], in data set [21], in [22], in data set [23], in data set [24] and in data set [25] was inactive. Besides, the outcome in data set [26], in [27], in data set [28], in [29] and in data set [30] was inactive. Further, the IC50 in data set [11] came to 41 µM. The Activity entry in data set [12] and in data set [13] was “Toxic” in each case.
`O=[N+]([O-])c1cc(Cn2nnnc2[Se]Cc2ccccc2)cc([N+](=O)[O-])c1`: the MIC in [1] came to 8 µM (≈ 3.35 µg/mL); in data set [2], 32 µM (≈ 13.4 µg/mL); in data set [3] it was 8 µM (≈ 3.35 µg/mL); in [4], 32 µM (≈ 13.4 µg/mL); in data set [5], 8 µM (≈ 3.35 µg/mL); in data set [6], 16 µM (≈ 6.71 µg/mL). The MIC in data set [7] stood at 32 µM (≈ 13.4 µg/mL); in [8] it was 16 µM (≈ 6.71 µg/mL); in data set [9] it was 32 µM (≈ 13.4 µg/mL); in data set [10], 32 µM (≈ 13.4 µg/mL). Moreover, in data set [11], the IC50 came to 85 µM.
`O=[N+]([O-])c1ccc(CSc2nnn(Cc3ccccc3)n2)c([N+](=O)[O-])c1`: the MIC in data set [1] amounted to 4 µM (≈ 1.49 µg/mL); in [2], 32 µM (≈ 11.9 µg/mL); in data set [3] it was 4 µM (≈ 1.49 µg/mL); in data set [4], 62 µM (≈ 23.1 µg/mL); in data set [5], 16 µM (≈ 5.96 µg/mL); in [6], 32 µM (≈ 11.9 µg/mL). The minimal inhibitory concentration (MIC) in [7] amounted to 62 µM (≈ 23.1 µg/mL); in data set [8] it was 8 µM (≈ 2.98 µg/mL); in data set [9] it was 16 µM (≈ 5.96 µg/mL); in data set [10], 32 µM (≈ 11.9 µg/mL). Also, the IC50 in [11] worked out at 21 µM.
Turning to `O=[N+]([O-])c1ccc(C[Se]c2nnnn2Cc2ccccc2)c([N+](=O)[O-])c1`, the minimal inhibitory concentration (MIC) in data set [1] was determined as 8 µM (≈ 3.35 µg/mL); in [2], 250 µM (≈ 105 µg/mL); in data set [3] it was 16 µM (≈ 6.71 µg/mL); in data set [4] it was 250 µM (≈ 105 µg/mL); in data set [5] it was 16 µM (≈ 6.71 µg/mL); in data set [6], 32 µM (≈ 13.4 µg/mL). For the same molecule, the MIC worked out at 125 µM (≈ 52.4 µg/mL) in data set [7], 16 µM (≈ 6.71 µg/mL) in data set [8], 62 µM (≈ 26 µg/mL) in [9] and 125 µM (≈ 52.4 µg/mL) in data set [10]. Besides, the IC50 in data set [11] worked out at 8.5 µM.

The values above are taken from ChEMBL document CHEMBL3621085, “Tetrazole regioisomers in the development of nitro group-containing antitubercular agents” (Medchemcomm, 2015).
